According to patent US20070134261A1, “Effectors of innate immunity” (priority 2001, published 2007):

Assays:
HBE cells = assay: Phosphorylation of MAP kinases (Western blot) in HBE cells; type: cell-based, human
Protocol: (§1) The cells were seeded at 2.5×10^5−5×10^5 cells/ml and left overnight. They were washed once in media, serum starved in the morning (serum free media—4 hrs). The media was removed and replaced with PBS, then sat at 37° C. for 15 minutes and then brought to room temp for 15 minutes. Peptide was added (concentrations 0.1 μg/ml−50 μg/ml) or H2O and incubated 10 min. The PBS was very quickly removed and replaced with ice-cold radioimmunoprecipitation (RIPA) buffer with inhibitors (NaF, B-glycerophosphate, MOL, Vanadate, PMSF, Leupeptin Aprotinin). The plates were shaken on ice for 10-15 min or until the cells were lysed and the lysates collected. The procedure for THP-1 cells was slightly different; more cells (2×10^6) were used. They were serum starved overnight, and to stop the reaction 1 ml of ice-cold PBS was added then they sat on ice 5-10 min, were spun down then resuspended in RIPA. Protein concentrations were determined using a protein assay (Pierce, Rockford, Ill.). Cell lysates (20 μg of protein) were separated by SDS-PAGE and transferred to nitrocellulose filters. […] The freshly harvested cells were consistently >99% viable as assessed by their ability to exclude trypan blue. […] Protein content was analyzed and approximately 30 μg of each sample was loaded in a 12% SDS-PAGE gel. […] Phosphorylation was detected with phosphorylation-specific antibodies.

[1] = tested on: mouse macrophage RAW cell line; assay: Phosphorylation of MAP kinases (Western blot) in RAW cell line; type: cell-based
Protocol: as §1

CC[C@H](C)[C@H](N)C(=O)N[C@@H](CC(C)C)C(=O)N1CCC[C@H]1C(=O)N[C@@H](Cc1c[nH]c2ccccc12)C(=O)N[C@@H](CCCCN)C(=O)N[C@@H](Cc1c[nH]c2ccccc12)C(=O)N1CCC[C@H]1C(=O)N[C@@H](Cc1c[nH]c2ccccc12)C(=O)N[C@@H](Cc1c[nH]c2ccccc12)C(=O)N1CCC[C@H]1C(=O)N[C@@H](Cc1c[nH]c2ccccc12)C(=O)N[C@@H](CCCNC(=N)N)C(=O)N[C@@H](CCCNC(=N)N)C(N)=O [SEQ ID NO: 2]
phosphorylation of p38 and ERK1/2 (HBE cells): dose dependent phosphorylation | phosphorylation of p38 and ERK1/2 [1]: dose dependent phosphorylation
